Source: paper PMC10582325 (Frontiers in Pharmacology, 2023)
Read-outs that look alike come from different tables or passages of the source.

Key:
[1] = Plasma concentration 3 h post dose in murine model of tuberculosis; type: in vivo, BALB/c mice infected with M. tuberculosis H37Rv; conditions: TB model
CYP3A4 = CYP3A4 (Homo sapiens, UniProt P08684); conditions: for IC50: read-out: Inhibition, IC50, HLM
[2] = Lung and spleen tissue exposure in BALB/c mice
[3] = Stability of BDQ, M2 and TBI-166 in mice plasma (LC-MS/MS validation)
[4] = Steady-state plasma pharmacokinetics of BDQ, M2 and TBI-166 in BALB/c mice; conditions: for AUC(0-t): Plasma; for t 1/2: after last dose
CYP1A2 = molecular target: T1, CYP1A2 (Homo sapiens, UniProt P05177); test: Direct CYP inhibition in human liver microsomes with marker probe substrates; conditions: read-out: Inhibition, IC50; HLM, CYP1A2 probe substrate
T1 sequence (P05177 1-516): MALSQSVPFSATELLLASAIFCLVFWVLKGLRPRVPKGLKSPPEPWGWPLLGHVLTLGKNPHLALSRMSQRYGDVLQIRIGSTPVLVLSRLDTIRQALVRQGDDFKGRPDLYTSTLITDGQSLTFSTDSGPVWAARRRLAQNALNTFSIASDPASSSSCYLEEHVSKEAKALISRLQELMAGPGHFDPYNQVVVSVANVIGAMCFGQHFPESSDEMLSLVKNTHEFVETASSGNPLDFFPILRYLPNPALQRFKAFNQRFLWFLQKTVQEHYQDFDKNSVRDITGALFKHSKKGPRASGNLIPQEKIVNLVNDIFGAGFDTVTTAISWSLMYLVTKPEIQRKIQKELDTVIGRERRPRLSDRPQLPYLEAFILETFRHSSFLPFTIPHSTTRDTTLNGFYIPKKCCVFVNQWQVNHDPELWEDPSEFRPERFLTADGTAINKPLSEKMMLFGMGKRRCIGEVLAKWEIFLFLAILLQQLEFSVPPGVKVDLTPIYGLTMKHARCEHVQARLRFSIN

CYP2C8 = molecular target: T2, CYP2C8 (Homo sapiens, UniProt P10632); test: as above; conditions: read-out: Inhibition, IC50; HLM, CYP2C8 probe substrate
T2 sequence (P10632 1-490): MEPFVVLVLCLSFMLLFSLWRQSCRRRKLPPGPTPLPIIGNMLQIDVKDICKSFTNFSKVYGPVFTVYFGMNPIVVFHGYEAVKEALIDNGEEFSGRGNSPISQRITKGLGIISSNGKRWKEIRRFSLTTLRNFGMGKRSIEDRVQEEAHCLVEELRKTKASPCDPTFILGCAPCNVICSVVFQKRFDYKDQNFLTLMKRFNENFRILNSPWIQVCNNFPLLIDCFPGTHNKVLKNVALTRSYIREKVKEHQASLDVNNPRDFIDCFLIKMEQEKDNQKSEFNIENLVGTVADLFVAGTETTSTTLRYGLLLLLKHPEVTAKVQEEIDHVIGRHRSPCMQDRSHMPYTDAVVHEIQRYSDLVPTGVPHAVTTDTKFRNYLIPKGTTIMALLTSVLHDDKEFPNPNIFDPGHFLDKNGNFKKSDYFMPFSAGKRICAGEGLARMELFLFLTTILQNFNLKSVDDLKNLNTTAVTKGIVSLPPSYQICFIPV

CYP2C9 = CYP2C9 (Homo sapiens, UniProt P11712); test: as above; conditions: read-out: Inhibition, IC50; HLM, CYP2C9 probe substrate
Sequence of CYP2C9 (P11712 whole entry): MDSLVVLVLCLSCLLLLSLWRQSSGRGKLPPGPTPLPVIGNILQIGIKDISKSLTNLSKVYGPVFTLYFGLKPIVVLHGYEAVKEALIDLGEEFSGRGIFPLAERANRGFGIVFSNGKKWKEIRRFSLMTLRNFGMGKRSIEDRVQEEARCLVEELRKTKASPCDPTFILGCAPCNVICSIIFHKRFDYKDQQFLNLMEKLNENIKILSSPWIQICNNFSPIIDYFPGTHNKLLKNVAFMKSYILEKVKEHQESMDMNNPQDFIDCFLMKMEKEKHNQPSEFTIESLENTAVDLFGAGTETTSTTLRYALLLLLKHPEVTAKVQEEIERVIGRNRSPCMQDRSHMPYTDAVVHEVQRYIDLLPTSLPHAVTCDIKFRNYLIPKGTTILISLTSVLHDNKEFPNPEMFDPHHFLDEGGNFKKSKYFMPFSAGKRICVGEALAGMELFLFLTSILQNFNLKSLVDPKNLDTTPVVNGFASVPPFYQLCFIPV

CYP2C19 = CYP2C19 (Homo sapiens, UniProt P33261); test: as above; conditions: read-out: Inhibition, IC50; HLM, CYP2C19 probe substrate
Sequence of CYP2C19 (P33261 whole entry): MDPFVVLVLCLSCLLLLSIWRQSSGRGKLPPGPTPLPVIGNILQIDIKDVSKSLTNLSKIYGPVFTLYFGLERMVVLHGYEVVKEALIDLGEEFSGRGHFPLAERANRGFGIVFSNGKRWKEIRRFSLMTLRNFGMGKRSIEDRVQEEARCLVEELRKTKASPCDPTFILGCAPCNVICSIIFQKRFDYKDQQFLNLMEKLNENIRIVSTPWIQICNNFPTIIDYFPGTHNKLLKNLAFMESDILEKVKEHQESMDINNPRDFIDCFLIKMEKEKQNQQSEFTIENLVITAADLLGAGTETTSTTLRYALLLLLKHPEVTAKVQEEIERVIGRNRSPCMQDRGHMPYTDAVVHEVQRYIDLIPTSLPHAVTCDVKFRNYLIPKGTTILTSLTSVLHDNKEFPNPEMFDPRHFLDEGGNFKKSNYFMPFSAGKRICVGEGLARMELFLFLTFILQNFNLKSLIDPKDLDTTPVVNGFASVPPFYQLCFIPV

CYP2D6 = CYP2D6 (Homo sapiens, UniProt P10635); test: as above; conditions: read-out: Inhibition, IC50; HLM, CYP2D6 probe substrate
Sequence of CYP2D6 (P10635 whole entry): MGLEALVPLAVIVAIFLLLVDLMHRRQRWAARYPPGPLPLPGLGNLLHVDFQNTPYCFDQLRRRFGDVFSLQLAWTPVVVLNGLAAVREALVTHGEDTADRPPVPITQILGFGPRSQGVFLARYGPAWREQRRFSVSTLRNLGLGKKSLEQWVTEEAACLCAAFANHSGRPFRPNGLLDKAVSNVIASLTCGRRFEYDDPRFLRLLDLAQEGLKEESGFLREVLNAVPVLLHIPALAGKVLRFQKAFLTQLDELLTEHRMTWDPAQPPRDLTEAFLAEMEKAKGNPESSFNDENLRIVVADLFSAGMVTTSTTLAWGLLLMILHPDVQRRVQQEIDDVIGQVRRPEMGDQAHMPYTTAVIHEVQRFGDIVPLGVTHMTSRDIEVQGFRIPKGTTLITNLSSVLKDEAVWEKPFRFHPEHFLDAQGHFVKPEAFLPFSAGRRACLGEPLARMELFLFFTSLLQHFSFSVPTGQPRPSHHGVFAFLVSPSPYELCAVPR

CYP2E1 = CYP2E1 (Homo sapiens, UniProt P05181); test: as above; conditions: read-out: Inhibition, IC50; HLM, CYP2E1 probe substrate
Sequence of CYP2E1 (P05181 whole entry): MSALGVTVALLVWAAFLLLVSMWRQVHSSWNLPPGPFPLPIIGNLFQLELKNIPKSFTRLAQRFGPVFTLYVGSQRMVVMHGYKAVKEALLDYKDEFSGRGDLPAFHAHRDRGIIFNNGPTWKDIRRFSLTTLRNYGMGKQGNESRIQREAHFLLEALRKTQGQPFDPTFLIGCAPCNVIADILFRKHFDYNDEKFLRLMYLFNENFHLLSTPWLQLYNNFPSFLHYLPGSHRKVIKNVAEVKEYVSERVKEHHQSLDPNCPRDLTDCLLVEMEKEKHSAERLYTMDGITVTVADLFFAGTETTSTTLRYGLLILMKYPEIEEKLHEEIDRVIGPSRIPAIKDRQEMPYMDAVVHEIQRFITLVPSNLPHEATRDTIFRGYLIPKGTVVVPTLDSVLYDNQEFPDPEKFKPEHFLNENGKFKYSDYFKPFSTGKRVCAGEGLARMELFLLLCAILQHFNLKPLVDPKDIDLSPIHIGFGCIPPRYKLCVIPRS

[5] = plasma, TBI-166 group (TBI-166 alone)

Sequence of CYP3A4 (P08684 2-503): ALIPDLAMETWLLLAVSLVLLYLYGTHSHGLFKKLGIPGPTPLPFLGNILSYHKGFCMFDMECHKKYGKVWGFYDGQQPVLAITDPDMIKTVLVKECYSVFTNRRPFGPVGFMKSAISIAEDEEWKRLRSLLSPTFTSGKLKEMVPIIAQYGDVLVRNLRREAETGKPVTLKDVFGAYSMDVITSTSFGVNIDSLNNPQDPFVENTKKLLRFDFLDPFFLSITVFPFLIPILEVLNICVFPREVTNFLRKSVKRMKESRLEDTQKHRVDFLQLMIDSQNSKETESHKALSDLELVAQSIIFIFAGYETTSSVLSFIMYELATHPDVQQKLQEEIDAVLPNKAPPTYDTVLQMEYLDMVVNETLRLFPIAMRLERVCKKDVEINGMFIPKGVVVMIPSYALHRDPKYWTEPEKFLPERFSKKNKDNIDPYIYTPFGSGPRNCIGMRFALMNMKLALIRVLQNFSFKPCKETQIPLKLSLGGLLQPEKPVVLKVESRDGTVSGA

## COc1ncccc1Nc1cc2nc3ccccc3n(-c3ccc(OC(F)(F)F)cc3)c-2cc1=NC1CCC(OC)CC1 (stereo not shown) [TBI-166, Pyrifazimine]
[1]; BDQ + TBI-166 group, W4
  Mean plasma concentration at three hours after oral administration: 1383.02 ± 411.59 ng/mL
[1]; BDQ + TBI-166 group, W8
  Mean plasma concentration at three hours after oral administration: 1330.40 ± 133.72 ng/mL
[1]; BDQ group (25 mg/kg), W4, LLOQ 5, 5, 15 ng/mL for BDQ, TBI-166, M2
  Mean plasma concentration at three hours after oral administration: <LLOQ
[1]; BDQ group (25 mg/kg), W8, LLOQ 5, 5, 15 ng/mL for BDQ, TBI-166, M2
  Mean plasma concentration at three hours after oral administration: <LLOQ
[1]; TBI-166 group (20 mg/kg), W4, LLOQ 5, 5, 15 ng/mL for BDQ, TBI-166, M2
  Mean plasma concentration at three hours after oral administration: 1375.79 ± 123.54 ng/mL
[1]; TBI-166 group (20 mg/kg), W8, LLOQ 5, 5, 15 ng/mL for BDQ, TBI-166, M2
  Mean plasma concentration at three hours after oral administration: 1323.76 ± 311.89 ng/mL
CYP3A4; based on IC50 with testosterone
  inhibitor strength class for CYP3A4 pathway: moderate (1 µM < IC50 < 10 µM)
CYP3A4; CYP3A4 MDZ (midazolam as probe substrate)
  IC50: 17.4 µM
CYP3A4; CYP3A4 TEST (testosterone as probe substrate)
  IC50: 2.65 µM
[2]; Lung, BDQ + TBI-166 group
  AUC(0-t): 321.07 ± 52.91 µg·h/g
  tissue-to-plasma ratio (Kp): 5.17
[2]; Lung, TBI-166 group
  AUC(0-t): 378.66 ± 104.67 µg·h/g
  tissue-to-plasma ratio (Kp): 5.49
[2]; Spleen, BDQ + TBI-166 group
  AUC(0-t): 483.54 ± 94.75 µg·h/g
  tissue-to-plasma ratio (Kp): 7.79
[2]; Spleen, TBI-166 group
  AUC(0-t): 296.09 ± 27.68 µg·h/g
  tissue-to-plasma ratio (Kp): 4.29
[2]; lungs
  exposure (AUC0-t) with vs without coadministration: similar
[2]; spleens
  increase of exposure (AUC0-t) after coadministration of BDQ with TBI-166: 1.5 fold
[3]; 4℃ for 24 h, 15 ng/mL
  Stability in mice plasma, RE: -15.07%
[3]; 4℃ for 24 h, 75 ng/mL
  Stability in mice plasma, RE: 1.87%
[3]; 4℃ for 24 h, 750 ng/mL
  Stability in mice plasma, RE: -12.65%
[3]; -40℃ for 7 d, 15 ng/mL
  Stability in mice plasma, RE: -2.20%
[3]; -40℃ for 7 d, 75 ng/mL
  Stability in mice plasma, RE: -1.01%
[3]; -40℃ for 7 d, 750 ng/mL
  Stability in mice plasma, RE: -13.53%
[3]; Freeze-thaw three cycles, 15 ng/mL
  Stability in mice plasma, RE: -14.27%
[3]; Freeze-thaw three cycles, 75 ng/mL
  Stability in mice plasma, RE: -5.39%
[3]; Freeze-thaw three cycles, 750 ng/mL
  Stability in mice plasma, RE: -13.50%
[3]; In auto-sample for 24 h, 15 ng/mL
  Stability in mice plasma, RE: 18.87%
[3]; In auto-sample for 24 h, 75 ng/mL
  Stability in mice plasma, RE: -12.61%
[3]; In auto-sample for 24 h, 750 ng/mL
  Stability in mice plasma, RE: -7.77%
[3]; Room temperature for 24 h, 15 ng/mL
  Stability in mice plasma, RE: -6.20%
[3]; Room temperature for 24 h, 75 ng/mL
  Stability in mice plasma, RE: -6.81%
[3]; Room temperature for 24 h, 750 ng/mL
  Stability in mice plasma, RE: -10.81%
[4]; Cmax observed at human equivalent dose of 20 mg, plasma, mice
  C max, p.o. dosage: 700 ng/mL
[4]; BDQ + TBI-166 group (Table S4)
  AUC(0-t): 62050 ± 2520 ng·h/mL
[4]; TBI-166 group (Table S4)
  AUC(0-t): 68950 ± 4840 ng·h/mL
[4]; plasma, BDQ + TBI-166 group
  AUC(0-last): 62,050 ± 2,519 h·ng/mL
  AUC(0-last) as percent of single-drug group: 91%
  AUC(0-∞): 103,720 h·ng/mL
  C max: 709.45 ± 71.13 ng/mL
  MRT(0-t): 65.18 h
  T max: 1 h
[4]; plasma, BDQ + TBI-166 group (BDQ 25 mg/kg + TBI-166 20 mg/kg, gavage QD 21 days)
  t 1/2: 132.67 h
[4]; plasma, TBI-166 group (TBI-166 20 mg/kg alone, gavage QD 21 days)
  t 1/2: 142.03 h
[4]; [5]
  AUC(0-last): 68,953 ± 4,843 h·ng/mL
  AUC(0-∞): 119,114 h·ng/mL
  C max: 1,043.84 ± 92.53 ng/mL
  MRT(0-t): 66.37 h
  T max: 1 h
[4]; plasma, TBI-166 group (reference)
  AUC(0-last) as percent of single-drug group: 100%
[4]; read-out: C max, p.o. dosage, Cmax observed at human equivalent dose of 20 mg, plasma, mice
  Cmax: 1190 nM
CYP1A2
  IC50: 0.55 µM
CYP2C8
  IC50: > 50 µM
CYP2C9
  IC50: 5.45 µM
CYP2C19
  IC50: 4.49 µM
CYP2D6
  IC50: 1.6 µM
CYP2E1
  IC50: 0.93 µM
